The results in this text go back to ChEMBL document CHEMBL1212919, “An efficient approach to the discovery of potent inhibitors against glycosyltransferases” (J Med Chem, 2010).

The structures appear in SMILES notation.

Test [1] in a line: Inhibition of alpha-(1,6)-fucosyltransferase after 60 mins by Lineweaver-Burke plot analysis.
A short description of test [2]: Inhibition of alpha-(1,3)-fucosyltransferase after 60 mins by Lineweaver-Burke plot analysis.
The target in test [3] is T1, CMP-N-acetylneuraminate-beta-1,4-galactoside alpha-2,3-sialyltransferase (Rattus norvegicus, UniProt Q02734).
T1 sequence (Q02734 whole entry): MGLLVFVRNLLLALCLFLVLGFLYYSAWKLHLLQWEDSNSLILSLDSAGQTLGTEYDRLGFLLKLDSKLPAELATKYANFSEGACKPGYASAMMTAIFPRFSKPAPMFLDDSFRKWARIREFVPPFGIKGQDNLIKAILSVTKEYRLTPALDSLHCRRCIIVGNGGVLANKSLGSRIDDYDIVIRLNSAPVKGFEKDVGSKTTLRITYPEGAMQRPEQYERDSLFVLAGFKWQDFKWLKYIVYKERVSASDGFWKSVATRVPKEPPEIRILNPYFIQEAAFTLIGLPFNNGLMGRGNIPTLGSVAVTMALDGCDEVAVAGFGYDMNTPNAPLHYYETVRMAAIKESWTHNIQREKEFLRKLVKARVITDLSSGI
Briefly: Inhibition of rat recombinant alpha 2,3-(N)-sialyltransferase 3.

Description for Rattus norvegicus: Inhibition of rat recombinant alpha 2,6-(N)-sialyltransferase 1 by Lineweaver-Burke plot analysis

In the case of `CCCCCc1ccc(-c2cn(C[C@@H]3O[C@H](OP(=O)(O)OP(=O)(O)OC[C@H]4O[C@@H](n5cnc6c(=O)[nH]c(N)nc65)[C@H](O)[C@@H]4O)[C@@H](O)[C@H](O)[C@@H]3O)nn2)cc1`, in test [1], the Ki worked out at 13.8 µM.

In the case of `C[C@]12CC[C@@H]3c4ccc(O)cc4CC[C@H]3[C@@H]1CC[C@@]2(O)c1cn(C[C@@H]2O[C@H](OP(=O)(O)OP(=O)(O)OC[C@H]3O[C@@H](n4cnc5c(=O)[nH]c(N)nc54)[C@H](O)[C@@H]3O)[C@@H](O)[C@H](O)[C@@H]2O)nn1`, the inhibitory constant (Ki) in test [2] stood at 0.293 µM.

Turning to `C[C@]12CC[C@@H]3c4ccc(O)cc4CC[C@H]3[C@@H]1CC[C@@]2(O)c1cn(CC(=O)N[C@H]2[C@H]([C@H](O)[C@H](O)CO)O[C@](OP(=O)(O)OC[C@H]3O[C@@H](n4ccc(N)nc4=O)[C@H](O)[C@@H]3O)(C(=O)O)C[C@@H]2O)nn1`, in test [3], the IC50 was determined as 8.2 µM. The Km in the test listed under Rattus norvegicus came to 125 µM.

A word on the Ki: it is a dissociation constant, usually derived from enzyme kinetics or from competition with a known ligand. As usually defined, the IC50 is the point on the concentration scale where inhibition reaches its midpoint. What is called Km is the substrate concentration at which the rate is half of its maximum.
